{"source": "patent US9783551B2", "about": "“Pyranochromenyl phenol derivative, and pharmaceutical composition for treating metabolic syndrome or inflammatory disease” (GLACEUM, INC., priority 2013, dated 2017)", "key": {"DIO mice [1]": {"tested_on": "DIO mice", "test": "Anti-obesity effect for DIO mice (body weight)", "assay_type": "in vivo, C57BL/6 mice", "settings": "Mus musculus, 672 h, 4 weeks, oral gavage once daily", "experimental": "(§1) Five-week-old female C57BL/6 mice (Narabio Co., Ltd.) were purchased and fed with only high-fat diet for at least 10 weeks to produce diet induced obesity ([…]) mice. Samples were exactly taken from Preparation Example 1 (glabridin) and the compounds of Examples of the present invention (Compounds 1 to 5, 7, 9, 11, 14 to 16, 21, and 23) according to the administration dose and put into Falcon tubes, 3 ml of a 0.5% methyl cellulose aqueous solution was added thereto and a vortex mixer was used to primarily mix the ingredients in a soft manner, and then a homogenizer (30,000 rpm, Ultra-Turrax® T10 Basic, IKA) was used to treat the sample for 3 minutes while 1.5 ml of a 0.5% methyl cellulose aqueous solution was added thereto. The sample thus prepared was administered through oral gavage using a disposable plastic syringe once daily for 28 days (4 weeks). The body weight was measured twice a week while the DIO mice were bred in this manner. Based on the data thus calculated, the anti-obesity effect (%) was calculated according to the equation defined as follows. Anti-Obesity Effect={(Body weight of control group)−(Body weight of experimental group)}/(Body weight of control group)×100"}, "PTP1B": {"biological_target": "PTP1B (Homo sapiens (Human), UniProt P18031)", "sequence (P18031 whole entry, species assumed)": "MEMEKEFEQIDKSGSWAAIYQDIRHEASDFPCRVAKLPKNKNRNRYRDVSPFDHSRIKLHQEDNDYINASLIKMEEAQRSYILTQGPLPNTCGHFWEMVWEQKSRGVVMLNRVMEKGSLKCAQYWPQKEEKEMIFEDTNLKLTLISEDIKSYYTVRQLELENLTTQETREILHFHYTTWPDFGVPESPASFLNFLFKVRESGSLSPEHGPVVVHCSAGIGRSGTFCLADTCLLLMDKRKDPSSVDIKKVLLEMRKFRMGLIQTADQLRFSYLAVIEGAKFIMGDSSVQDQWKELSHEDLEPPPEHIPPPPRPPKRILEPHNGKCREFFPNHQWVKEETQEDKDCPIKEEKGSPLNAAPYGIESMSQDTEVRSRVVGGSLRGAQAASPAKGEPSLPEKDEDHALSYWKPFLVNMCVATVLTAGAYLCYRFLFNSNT", "test": "Experiment of PTP1B inhibition (p-NPP dephosphorylation)", "assay_type": "biochemical", "settings": "2 mM p-NPP substrate, 30° C., 30 minutes", "from_the_text": "With respect to PTP1B, the degrees of inhibition (IC50 The half maximal inhibitory concentration) of glabridin, and compounds of Preparation Example 2 (Compound 1), Example 2 (Compound 3), Example 3 (Compound 4), Example 4 (Compound 5), Example 13 (Compound 14), Example 14 (Compound 15), Example 15 (Compound 16), Example 17 (Compound 18), Example 18 (Compound 19) and Example 20 (Compound 21) were compared to each other. For this purpose, the degree of inhibition activity for PTP1B was investigated by using 2 mM p-nitrophenyl phosphate (p-NPP) as a substrate to measure the dephosphorylation degree. First, PTP1B diluted with distilled water was reacted with 2 mM p-nitrophenyl phosphate {p-NPP, 0.1 M NaCl, 1 mM EDTA, 50 mM citrate pH 6.0, and 1 mM dithiothreitol (DTT)} and Compound 1 at various concentrations at 30° C. for 30 minutes, and then the reaction was terminated with a 1 N-sodium hydroxide (NaOH) solution. The absorbance of the samples thus prepared was measured to confirm the inhibition degree (IC50: The half maximal inhibitory concentration) for PTP1B activity according to the concentration of Compound 1. Even for glabridin, Compound 3, Compound 4, Compound 5, Compound 14, Compound 15, Compound 16, Compound 18, Compound 19, and Compound 21, the same measurement was performed."}, "DIO mice [2]": {"tested_on": "DIO mice", "test": "Organ weights and blood biochemistry of DIO mice after 28 days of administration", "assay_type": "in vivo, C57BL/6 mice", "experimental": "as §1\nAfter the experiment was performed for 28 days (4 weeks) as described above, blood was simultaneously taken while the experimental animal was finally sacrificed, and each of the organs (liver, heart, kidney, pancreas, fat tissues and the like) was removed to measure the weight and observe peculiar matters.\nIn Table 3, { }, ( ) and the like were used in order to differentiate experiments which had been performed at different periods. Experiments without the parenthesis were those simultaneously performed under the same conditions."}, "BV2 microglia cells": {"tested_on": "BV2 microglia cells", "test": "BV2 cell NO assay (LPS-induced NO production, Griess reagent)", "assay_type": "cell-based", "settings": "Mus musculus, BV-2, LPS 1 μg/ml, 24 hours", "experimental": "(§2) After the pretreatment, 0.5 mg/ml of the MTT (Sigma, M2128) reagent was further added thereto. After the cells were cultured in a 5% CO2 incubator, the supernatant was discarded, 150 μl of DMSO was added and was shaken for 30 minutes, and an ELISA micro plate reader (Bio Rad Laboratories Inc., California, USA, Model 680) was used to measure the absorbance at a wavelength of 540 nm. All the experimental values were calculated as an average value of three repeated experimental values of the cell protection rate for the control group, and an experiment of suppressing the NO production for each compound was carried out at a concentration in which no cytotoxicity was shown.\n(§3) After the reaction, an ELISA micro plate reader (Bio Rad Laboratories Inc., California, USA, Model 680) was used to measure the absorbance at a wavelength of 540 nm. The suppression rate was calculated as a difference in amount of NO produced between the control group and the experimental group, and as shown in the following Table 6 and FIG. 6, Compounds 4, 5, 15, 16, 18, and the like of the present invention were excellent in the effect of suppressing the production of NO, and the effect is also about 5 times to about 9 times better than that of glabridin."}, "RAW264.7 macrophages": {"tested_on": "RAW264.7 macrophages", "test": "RAW264.7 macrophage NO assay (LPS-induced NO production, Griess reagent)", "assay_type": "cell-based", "experimental": "as §2, with “pretreatment,” for “pretreatment, 0.5 mg/ml of”, “reagent at a concentration of 0.5 mg/ml” for “reagent”, “incubator for 4 hours,” for “incubator,”\nas §3, with “7,” for “6 and FIG. 6,”, “NO.” for “NO, and the effect is also about 5 times to about 9 times better than that of glabridin.”"}, "[3]": {"settings": "150 mg/kg, experiment without parenthesis"}}, "note": "pIC50: −log10 of the molar value.", "data": [{"smiles": "CC1(C)CCc2c(ccc3c2OCC(c2ccccc2O)C3)O1", "note": "(stereo not shown) [Compound 2, 3-(2-hydroxyphenyl)-8,8-dimethyl-2,3,4,8,9,10-hexahydropyrano [2,3-f] chromene]", "values": [{"measurement": "inhibition in vivo at 200 mg/kg", "setting": "DIO mice [1]", "value": 8, "unit": "%"}]}, {"smiles": "COCCc1ccc(C2COc3c(ccc4c3CCC(C)(C)O4)C2)c(O)c1", "note": "(stereo not shown) [Compound 9, 3-(2-hydroxy-4-(2-methoxyethyl)phenyl)-8,8-dimethyl-2,3,4,8,9,10-hexahydropyrano [2,3-f] chromene]", "values": [{"measurement": "inhibition in vivo at 150 mg/kg", "setting": "DIO mice [1]", "value": 10, "unit": "%"}]}, {"smiles": "CCCCCOc1ccc(C2COc3c(ccc4c3CCC(C)(C)O4)C2)c(O)c1", "note": "(stereo not shown) [Compound 19, 3-(2-hydroxy-4-n-pentoxyphenyl)-8,8-dimethyl-2,3,4,8,9,10-hexahydropyrano [2,3-f] chromene]", "values": [{"measurement": "pIC50", "setting": "PTP1B", "value": 5.92}]}, {"smiles": "CC1(C)CCc2c(ccc3c2OC[C@@H](c2ccc(O)cc2O)C3)O1", "note": "[Compound 1, 3″,4″-dihydroglabridin]", "values": [{"measurement": "inhibition in vivo at 150 mg/kg", "setting": "DIO mice [1]", "value": 8, "unit": "%"}, {"measurement": "pIC50", "setting": "PTP1B", "value": 4.34}, {"measurement": "ALT (U/L)", "setting": "DIO mice [2]; [3]", "value": 34, "unit": "U/L"}, {"measurement": "AST (U/L)", "setting": "DIO mice [2]; [3]", "value": 93, "unit": "U/L"}, {"measurement": "BMI", "setting": "DIO mice [2]; [3]", "value": 3.8}, {"measurement": "FFA (μEq/L)", "setting": "DIO mice [2]; [3]", "value": 1400, "unit": "μEq/L"}, {"measurement": "Fat (g), weight of fat removed around the epididymis and the kidney", "setting": "DIO mice [2]; [3]", "value": 2.07, "unit": "g"}, {"measurement": "LDL", "setting": "DIO mice [2]; [3]", "value": 11, "unit": "mg/dL"}, {"measurement": "Liver (g), weight of liver", "setting": "DIO mice [2]; [3]", "value": 1.24, "unit": "g"}]}, {"smiles": "Cc1cc(O)c(C2COc3c(ccc4c3CCC(C)(C)O4)C2)cc1C", "note": "(stereo not shown) [Compound 11, 3-(2-hydroxy-4,5-dimethylphenyl)-8,8-dimethyl-2,3,4,8,9,10-hexahydropyrano [2,3-f] chromene]", "values": [{"measurement": "inhibition in vivo at 150 mg/kg", "setting": "DIO mice [1]", "value": 8, "unit": "%"}]}, {"smiles": "CCCCOc1ccc(C2COc3c(ccc4c3CCC(C)(C)O4)C2)c(O)c1", "note": "(stereo not shown) [Compound 18, 3-(2-hydroxy-4-butoxyphenyl)-8,8-dimethyl-2,3,4,8,9,10-hexahydropyrano [2,3-f] chromene]", "values": [{"measurement": "pIC50", "setting": "PTP1B", "value": 5.47}, {"measurement": "pIC50", "setting": "BV2 microglia cells", "value": 5.55}, {"measurement": "pIC50", "setting": "RAW264.7 macrophages; Mus musculus, RAW264.7, NO production, LPS 1 μg/ml, 24 hours", "value": 5.25}, {"measurement": "effect of suppressing the production of NO", "setting": "RAW264.7 macrophages; RAW264.7 macrophages, in words", "value": "excellent"}]}, {"smiles": "COCOc1ccc(C2COc3c(ccc4c3CCC(C)(C)O4)C2)c(O)c1", "note": "(stereo not shown) [Compound 21, 3-(2-hydroxy-4-(methoxymethoxy)phenyl)-8,8-dimethyl-2,3,4,8,9,10-hexahydropyrano [2,3-f] chromene]", "values": [{"measurement": "inhibition in vivo at 150 mg/kg", "setting": "DIO mice [1]", "value": 16, "unit": "%"}, {"measurement": "pIC50", "setting": "PTP1B", "value": 5.64}, {"measurement": "ALT (U/L)", "setting": "DIO mice [2]; [3]", "value": 46, "unit": "U/L"}, {"measurement": "AST (U/L)", "setting": "DIO mice [2]; [3]", "value": 104, "unit": "U/L"}, {"measurement": "BMI", "setting": "DIO mice [2]; [3]", "value": 3.6}, {"measurement": "FFA (μEq/L)", "setting": "DIO mice [2]; [3]", "value": 1520, "unit": "μEq/L"}, {"measurement": "Fat (g), weight of fat removed around the epididymis and the kidney", "setting": "DIO mice [2]; [3]", "value": 2.13, "unit": "g"}, {"measurement": "LDL", "setting": "DIO mice [2]; [3]", "value": 12, "unit": "mg/dL"}, {"measurement": "Liver (g), weight of liver", "setting": "DIO mice [2]; [3]", "value": 1.11, "unit": "g"}]}, {"smiles": "CCCCc1ccc(C2COc3c(ccc4c3CCC(C)(C)O4)C2)c(O)c1", "note": "(stereo not shown) [Compound 7, 3-(2-hydroxy-4-butylphenyl)-8,8-dimethyl-2,3,4,8,9,10-hexahydropyrano [2,3-f] chromene]", "values": [{"measurement": "inhibition in vivo at 150 mg/kg", "setting": "DIO mice [1]", "value": 14, "unit": "%"}]}, {"smiles": "Cc1ccc(C2COc3c(ccc4c3CCC(C)(C)O4)C2)c(O)c1", "note": "(stereo not shown) [Compound 3, 3-(2-hydroxy-4-methylphenyl)-8,8-dimethyl-2,3,4,8,9,10-hexahydropyrano [2,3-f] chromene]", "values": [{"measurement": "inhibition in vivo at 200 mg/kg", "setting": "DIO mice [1]", "value": 19, "unit": "%"}, {"measurement": "pIC50", "setting": "PTP1B", "value": 5.15}, {"measurement": "ALT (U/L)", "setting": "DIO mice [2]; 200 mg/kg, { } experiment", "value": "{73} U/L"}, {"measurement": "AST (U/L)", "setting": "DIO mice [2]; 200 mg/kg, { } experiment", "value": "{152} U/L"}, {"measurement": "BMI", "setting": "DIO mice [2]; 200 mg/kg, { } experiment", "value": "{3.5}"}, {"measurement": "FFA (μEq/L)", "setting": "DIO mice [2]; 200 mg/kg, { } experiment", "value": "{2390} μEq/L"}, {"measurement": "Fat (g), weight of fat removed around the epididymis and the kidney", "setting": "DIO mice [2]; 200 mg/kg, { } experiment", "value": "{1.62} g"}, {"measurement": "LDL (mg/dL)", "setting": "DIO mice [2]; 200 mg/kg, { } experiment", "value": "{22} mg/dL"}, {"measurement": "Liver (g), weight of liver", "setting": "DIO mice [2]; 200 mg/kg, { } experiment", "value": "{1.53} g"}]}, {"smiles": "CCC1(CC)CCc2c(ccc3c2OCC(c2ccc(OC)cc2O)C3)O1", "note": "(stereo not shown) [Compound 23, 3-(2-hydroxy-4-methoxyphenyl)-8,8-diethyl-2,3,4,8,9,10-hexahydropyrano [2,3-f] chromene]", "values": [{"measurement": "inhibition in vivo at 200 mg/kg", "setting": "DIO mice [1]", "value": 11, "unit": "%"}]}, {"smiles": "COc1ccc(C2COc3c(ccc4c3CCC(C)(C)O4)C2)c(O)c1", "note": "(stereo not shown) [Compound 14, 3-(2-hydroxy-4-methoxyphenyl)-8,8-dimethyl-2,3,4,8,9,10-hexahydropyrano [2,3-f] chromene]", "values": [{"measurement": "inhibition in vivo at 150 mg/kg", "setting": "DIO mice [1]", "value": 12, "unit": "%"}, {"measurement": "pIC50", "setting": "PTP1B", "value": 5.19}, {"measurement": "ALT (U/L)", "setting": "DIO mice [2]; [3]", "value": 51, "unit": "U/L"}, {"measurement": "AST (U/L)", "setting": "DIO mice [2]; [3]", "value": 131, "unit": "U/L"}, {"measurement": "BMI", "setting": "DIO mice [2]; [3]", "value": 3.9}, {"measurement": "FFA (μEq/L)", "setting": "DIO mice [2]; [3]", "value": 2160, "unit": "μEq/L"}, {"measurement": "Fat (g), weight of fat removed around the epididymis and the kidney", "setting": "DIO mice [2]; [3]", "value": 2.23, "unit": "g"}, {"measurement": "LDL", "setting": "DIO mice [2]; [3]", "value": 13, "unit": "mg/dL"}, {"measurement": "Liver (g), weight of liver", "setting": "DIO mice [2]; [3]", "value": 1.19, "unit": "g"}]}]}
